Experimental data from the METLIN SMRT retention time set (Domingo-Almenara et al. 2019).

Assay: gradient 5% acetonitrile 3 min, to 50% in 2 min, to 85% in 15 min, held 3 min, 100 µL/min
Details: column: Zorbax Extend-C18 2.1 x 50 mm; eluents: water / acetonitrile, 0.1% formic acid
How it was run: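 Values are retention times taken from adduct peaks that software picked and an analyst inspected. The pure standards were run as mixtures of ~100 molecules on HPLC linked to a quadrupole time-of-flight mass spectrometer, in positive and negative ionization mode. A Zorbax Extend-C18 column (2.1 × 50 mm, 1.8 μm) was used at 100 μL/min with water and acetonitrile, each including 0.1% formic acid.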

Row | RP-LC retention time [s] | SMILES
1 | 616 | C(#Cc1ccccc1)CN1CCN(CC#Cc2ccccc2)CC1
2 | 1140 | CCc1cc(C(=O)Nc2cc(C)ccc2C)nc2ccnn12
3 | 785 | COc1ccc(C(=O)Nc2nc(-c3ccc4c(c3)N(C)C(=O)CO4)cs2)cc1OC
4 | 1200 | CSc1ccc(C2c3[nH]c4ccccc4c3CCN2C(=O)Cc2cccs2)cc1 (stereo unspecified)
5 | 769 | Cc1ccc(-c2cc3c(N4CCC(C(=O)NC(C)C)CC4)nccn3n2)c(C)c1
6 | 762 | Cc1ccc(-n2cc3c(N4CCCC(C(=O)NC5CCCCCC5)C4)ncnc3n2)cc1 (stereo unspecified)
7 | 883 | Cc1ccc(CNc2ccc3nnc(C4CCC4)n3n2)o1
8 | 752 | CC1CCN(CCNS(=O)(=O)c2ccccc2-c2nc(-c3ccc(F)cc3)no2)CC1
9 | 847 | CN1C(=O)c2ccccc2Oc2ccc(C(=O)NCc3cccs3)cc21
10 | 1110 | Cc1ccc(NC(=O)N2CCCC2c2nc(-c3ccc(F)cc3F)no2)c(Cl)c1 (stereo unspecified)
11 | 574 | CCn1c(N2CCC(C(=O)NCCCN3CCOCC3)CC2)cc(=O)n(C)c1=O
12 | 790 | CCN1CCCCc2cc(C(=O)NC3CCS(=O)(=O)C3)sc21 (stereo unspecified)
13 | 919 | COc1ccc(-c2cc(-c3nc4c5sc6nc(C)cc(C)c6c5ncn4n3)[nH]n2)cc1OC
14 | 732 | Cc1ccc(NC(=O)Nc2cccc(-c3ccc(N4CCOCC4)nn3)c2)c(C)c1
15 | 986 | CCc1noc(-c2nc(-c3ccc(OC)cc3)no2)n1
16 | 926 | Cc1ccc(NC(=O)CSc2nnc(NC(=O)c3cc(C4CC4)on3)s2)cc1Cl
17 | 1140 | CC(C)c1nc(-n2cccc2)sc1C(=O)NCc1ccccc1
18 | 1020 | CCc1nc2sc(C(C)C)nn2c1S(=O)(=O)NC1CCCCC1
19 | 863 | Cc1cccc(Nc2nc(C(=O)NCCc3cccs3)nc3ccccc23)c1
20 | 608 | CCN1CCN(CCCNS(=O)(=O)c2cc(-c3nc(C)c(C)s3)sc2C)CC1
21 | 834 | CCn1cc(C(=O)Nc2ccccc2)c(S(=O)(=O)N2CCSCC2)n1

Row | RP-LC retention time [s] | SMILES
22 | 614 | CC(C)n1c(CNC(=O)C2CC(=O)N(c3n[nH]c4ccccc34)C2)nc2ccccc21 (stereo unspecified)
23 | 726 | COc1ccccc1NC(=O)C1CC(=O)N(c2ccc3oc(C)nc3c2)C1 (stereo unspecified)
24 | 604 | O=C(NCC1(N2CCOCC2)CCOC1)Nc1cc(F)cc(F)c1 (stereo unspecified)
25 | 683 | COc1cccc(CCC(=O)Nc2ccc3ncnc(N4CCCC4)c3c2)c1
26 | 560 | CN1CCN(CCCNC(=O)Cn2c3ccccc3c3cnn(C)c(=O)c32)CC1
27 | 868 | CCCN1C(=O)c2c(C(=O)NCc3ccc(Cl)cc3)ncn2CC1(C)C(=O)NCCC(C)C (stereo unspecified)
28 | 694 | CCCN(C)c1nccnc1OC1CCN(C(=O)CC)C1 (stereo unspecified)
29 | 697 | O=C(Cn1ccnc1-c1ccnc(N2CCSCC2)c1)N1CCN(c2ccccc2)CC1
30 | 914 | CCOCCCN1C(=O)c2cc(-c3ccccc3)nn2CC1(C)C(=O)NCc1ccccc1 (stereo unspecified)
31 | 708 | COCCCNC(=O)C1c2ccccc2C(=O)N1Cc1ccccc1F (stereo unspecified)
32 | 822 | COc1ccc(S(=O)(=O)N2CCCN(c3ccc(=O)n(-c4ccccc4)n3)CC2)cc1
33 | 721 | O=C(NC1CCN(c2cc(-c3ccc(F)cc3)[nH]n2)C1)c1ccccc1Cl (stereo unspecified)
34 | 694 | NC(=O)C1(c2cccc(F)c2)CC1
35 | 968 | COc1ccc(OCc2noc(CNS(=O)(=O)c3ccc4c(c3)CCCC4)n2)cc1
36 | 640 | O=C(NC1CCN(Cc2ccccc2)CC1)c1cc2n(n1)CCCN(Cc1ccccc1)C2=O
37 | 892 | Cc1nc(C2CN(S(=O)(=O)c3ccccc3C(F)(F)F)CC23CCOCC3)no1 (stereo unspecified)
38 | 571 | CCN1CCCC1CNC(=O)CN1C(=O)CCn2nc(-c3cn(C)c4ccccc34)cc21 (stereo unspecified)
39 | 986 | COc1ccc(-c2nnc(SCC(=O)Nc3ccc(C)cc3Br)o2)cc1
40 | 631 | COCC(=O)N1CCC2(CC1)NC(=O)N(CCc1ccccc1)C2=O
41 | 737 | O=C(NCCCn1nc(-c2ccco2)ccc1=O)c1cc(Cl)ccc1Cl
42 | 835 | CC1=C(c2ccccc2)S(=O)(=O)N=C1N1CCCN(C(=O)c2ccc(F)cc2F)CC1

Row | RP-LC retention time [s] | SMILES
43 | 1140 | CCCCNC(=O)c1c(O)c2cccnc2n(-c2cccc(OC)c2)c1=O
44 | 958 | Cc1ccc(Cn2c(N3CCCC(C(=O)NCc4ccccc4)C3)nc3ccsc3c2=O)cc1 (stereo unspecified)
45 | 1160 | CCOc1ccc(-c2cc3c(=O)n(Cc4nc(-c5ccc(F)cc5)no4)ncn3n2)cc1
46 | 605 | O=C(c1cc(-c2cccnc2)n[nH]1)N1CCN(C(=O)c2ccc(Br)o2)CC1
47 | 632 | CC(C)(C)NC(=O)CCc1c(-c2ccccc2)nc2ccccn12
48 | 1260 | CCCCc1ccc(NC(=O)Cn2cccc2-c2nc(-c3ccc4c(c3)OCO4)no2)cc1
49 | 586 | O=C1CCN(C(=O)c2ccsc2)CCCOCCN1
50 | 1140 | CCn1c(=O)c(N2CCCC(C(=O)NCc3cc(Br)ccc3OC)C2)nc2ccccc21 (stereo unspecified)
51 | 719 | COc1ccc2c(C)c(CCC(=O)N[C@H](C(=O)O)c3ccccc3)c(=O)oc2c1OC
52 | 937 | COc1ccc(NC(=O)Cc2csc3nc(-c4cccc(Br)c4)cn23)cc1
53 | 932 | CN1c2cc(C(=O)NCc3ccc(OC(F)(F)F)cc3)ccc2C(=O)N2CCCCC21 (stereo unspecified)
54 | 834 | COc1ccc(CNC(=O)C2CC(=O)N(CCc3c[nH]c4ccc(Cl)cc34)C2)cc1 (stereo unspecified)
55 | 584 | O=C(Nc1ccc(Cl)cc1F)N1CCc2nc[nH]c2C1
56 | 839 | CCc1cccc(NC(=O)C2CCc3nc(N4CCOCC4)ncc3C2)c1 (stereo unspecified)
57 | 597 | COc1ccccc1NC(=O)[C@H]1[C@H]2C=C[C@]3(CN(Cc4cccnc4)C(=O)[C@@H]13)O2
58 | 1130 | O=S(=O)(Cc1c(F)cccc1Cl)N1CCc2nc(-c3ccc(F)cc3)ncc2C1
59 | 1200 | Cc1ccc(-c2nc(CN(c3ccccc3)S(=O)(=O)c3cccs3)c(C)o2)cc1
60 | 637 | CCCCNc1nnc(-c2nnc(C)o2)c2ccccc12
61 | 988 | CCCCN1C(=O)C(NC(=O)c2cccc(OC)c2)(C(F)(F)F)C(C(=O)OC)=C1C (stereo unspecified)
62 | 687 | O=C(NCc1ccco1)C1CC(=O)N(c2ccc3c(c2)CCN3C(=O)C2CC2)C1 (stereo unspecified)
63 | 790 | Cc1noc2nc(C)n(CC(=O)Nc3ccc(F)c(F)c3)c(=O)c12

Row | SMILES | RP-LC retention time [s]
64 | CC1CCN(S(=O)(=O)c2ccc(-c3nnc(C(=O)N4CCC5(CC4)OCCO5)o3)cc2)CC1 | 952
65 | O=C(c1cccs1)N1[C@H]2CC[C@@H]1c1cnc(-c3ccccc3)nc1C2 | 907
66 | NC(=O)Cn1c(Cc2ccccc2)nc2ccccc21 | 522
